Laboratory results reported in PubChem BioAssay AID2060627 (Molecular Pharmacology Branch, DTP, NCI, 2025).

The compounds below were run on 156681-154-R-J1-PDC complex spheroid viability (assay: Anticancer human tumor 156681-154-R-J1-PDC patient-derived melanoma cell line growth inhibition [CLK]). Details: second compound 0.0316 µM; first compound 3.16 µM; hits give low values.
In short: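 Multi-cell-type spheroids combined patient-derived tumor cells with HUVEC endothelial cells and human mesenchymal stem cells. Paired agents were dosed in half-log steps down from about clinical Cmax, or from 10 microM where Cmax was unknown.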
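Also: spheroids exposed to the agents for seven days; 100% = DMSO vehicle control viability.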

Compound | viability, T/C [%]
O=c1[nH]cc(F)c(=O)[nH]1 + CNC(=O)c1ccc(Nc2nc(OC3CCCC3)c3c(-c4ccc5nc(C)oc5c4)c[nH]c3n2)c(OC)c1 | 86.9
C=CC(=O)N1CCN(c2nc(=O)n(-c3c(C)ccnc3C(C)C)c3nc(-c4c(O)cccc4F)c(F)cc23)C(C)C1 (stereo not drawn) + CNC(=O)c1ccc(Nc2nc(OC3CCCC3)c3c(-c4ccc5nc(C)oc5c4)c[nH]c3n2)c(OC)c1 | 129
Nc1ccccc1NC(=O)c1ccc(CNC(=O)OCc2cccnc2)cc1 + CNC(=O)c1ccc(Nc2nc(OC3CCCC3)c3c(-c4ccc5nc(C)oc5c4)c[nH]c3n2)c(OC)c1 | 3.29

Same assay, conditions: second compound 0.0316 µM; first compound 10 µM; hits give low values

Compound | viability, T/C [%]
COC1C=CCC(C)C(C)S(=O)(=O)NC(=O)c2ccc3c(c2)N(CC2CCC21)CC1(CCCc2cc(Cl)ccc21)CO3 (stereo not drawn) + CNC(=O)c1ccc(Nc2nc(OC3CCCC3)c3c(-c4ccc5nc(C)oc5c4)c[nH]c3n2)c(OC)c1 | 1.52
Nc1ccccc1NC(=O)c1ccc(CNC(=O)OCc2cccnc2)cc1 + CN1CCN(c2cc(C(=O)Nc3cc4cc(-c5cnn(C)c5)ccc4cn3)ccn2)CC1 | 0.29
O=c1[nH]cc(F)c(=O)[nH]1 + CNC(=O)c1ccc(Nc2nc(OC3CCCC3)c3c(-c4ccc5nc(C)oc5c4)c[nH]c3n2)c(OC)c1 | 40.8
C=CC(=O)N1CCN(c2nc(=O)n(-c3c(C)ccnc3C(C)C)c3nc(-c4c(O)cccc4F)c(F)cc23)C(C)C1 (stereo not drawn) + CNC(=O)c1ccc(Nc2nc(OC3CCCC3)c3c(-c4ccc5nc(C)oc5c4)c[nH]c3n2)c(OC)c1 | 82.7
Nc1ccccc1NC(=O)c1ccc(CNC(=O)OCc2cccnc2)cc1 + CNC(=O)c1ccc(Nc2nc(OC3CCCC3)c3c(-c4ccc5nc(C)oc5c4)c[nH]c3n2)c(OC)c1 | 1.7

Same assay, conditions: second compound 0.1 µM; first compound 0.0316 µM; hits give low values

Compound | viability, T/C [%]
COC1C=CCC(C)C(C)S(=O)(=O)NC(=O)c2ccc3c(c2)N(CC2CCC21)CC1(CCCc2cc(Cl)ccc21)CO3 (stereo not drawn) + CNC(=O)c1ccc(Nc2nc(OC3CCCC3)c3c(-c4ccc5nc(C)oc5c4)c[nH]c3n2)c(OC)c1 | 60.2
Nc1ccccc1NC(=O)c1ccc(CNC(=O)OCc2cccnc2)cc1 + CN1CCN(c2cc(C(=O)Nc3cc4cc(-c5cnn(C)c5)ccc4cn3)ccn2)CC1 | 95.2
O=c1[nH]cc(F)c(=O)[nH]1 + CNC(=O)c1ccc(Nc2nc(OC3CCCC3)c3c(-c4ccc5nc(C)oc5c4)c[nH]c3n2)c(OC)c1 | 63.9
C=CC(=O)N1CCN(c2nc(=O)n(-c3c(C)ccnc3C(C)C)c3nc(-c4c(O)cccc4F)c(F)cc23)C(C)C1 (stereo not drawn) + CNC(=O)c1ccc(Nc2nc(OC3CCCC3)c3c(-c4ccc5nc(C)oc5c4)c[nH]c3n2)c(OC)c1 | 47.1
Nc1ccccc1NC(=O)c1ccc(CNC(=O)OCc2cccnc2)cc1 + CNC(=O)c1ccc(Nc2nc(OC3CCCC3)c3c(-c4ccc5nc(C)oc5c4)c[nH]c3n2)c(OC)c1 | 70

Same assay, conditions: second compound 0.1 µM; first compound 0.1 µM; hits give low values

Compound | viability, T/C [%]
COC1C=CCC(C)C(C)S(=O)(=O)NC(=O)c2ccc3c(c2)N(CC2CCC21)CC1(CCCc2cc(Cl)ccc21)CO3 (stereo not drawn) + CNC(=O)c1ccc(Nc2nc(OC3CCCC3)c3c(-c4ccc5nc(C)oc5c4)c[nH]c3n2)c(OC)c1 | 57
Nc1ccccc1NC(=O)c1ccc(CNC(=O)OCc2cccnc2)cc1 + CN1CCN(c2cc(C(=O)Nc3cc4cc(-c5cnn(C)c5)ccc4cn3)ccn2)CC1 | 89.5
O=c1[nH]cc(F)c(=O)[nH]1 + CNC(=O)c1ccc(Nc2nc(OC3CCCC3)c3c(-c4ccc5nc(C)oc5c4)c[nH]c3n2)c(OC)c1 | 79.2
C=CC(=O)N1CCN(c2nc(=O)n(-c3c(C)ccnc3C(C)C)c3nc(-c4c(O)cccc4F)c(F)cc23)C(C)C1 (stereo not drawn) + CNC(=O)c1ccc(Nc2nc(OC3CCCC3)c3c(-c4ccc5nc(C)oc5c4)c[nH]c3n2)c(OC)c1 | 67.9
Nc1ccccc1NC(=O)c1ccc(CNC(=O)OCc2cccnc2)cc1 + CNC(=O)c1ccc(Nc2nc(OC3CCCC3)c3c(-c4ccc5nc(C)oc5c4)c[nH]c3n2)c(OC)c1 | 66.3

Same assay, conditions: second compound 0.1 µM; first compound 0.316 µM; hits give low values

Compound | viability, T/C [%]
COC1C=CCC(C)C(C)S(=O)(=O)NC(=O)c2ccc3c(c2)N(CC2CCC21)CC1(CCCc2cc(Cl)ccc21)CO3 (stereo not drawn) + CNC(=O)c1ccc(Nc2nc(OC3CCCC3)c3c(-c4ccc5nc(C)oc5c4)c[nH]c3n2)c(OC)c1 | 48.8
Nc1ccccc1NC(=O)c1ccc(CNC(=O)OCc2cccnc2)cc1 + CN1CCN(c2cc(C(=O)Nc3cc4cc(-c5cnn(C)c5)ccc4cn3)ccn2)CC1 | 65.2
O=c1[nH]cc(F)c(=O)[nH]1 + CNC(=O)c1ccc(Nc2nc(OC3CCCC3)c3c(-c4ccc5nc(C)oc5c4)c[nH]c3n2)c(OC)c1 | 74.4
C=CC(=O)N1CCN(c2nc(=O)n(-c3c(C)ccnc3C(C)C)c3nc(-c4c(O)cccc4F)c(F)cc23)C(C)C1 (stereo not drawn) + CNC(=O)c1ccc(Nc2nc(OC3CCCC3)c3c(-c4ccc5nc(C)oc5c4)c[nH]c3n2)c(OC)c1 | 71.1
Nc1ccccc1NC(=O)c1ccc(CNC(=O)OCc2cccnc2)cc1 + CNC(=O)c1ccc(Nc2nc(OC3CCCC3)c3c(-c4ccc5nc(C)oc5c4)c[nH]c3n2)c(OC)c1 | 45.7

Same assay, conditions: second compound 0.1 µM; first compound 1 µM; hits give low values

Compound | viability, T/C [%]
COC1C=CCC(C)C(C)S(=O)(=O)NC(=O)c2ccc3c(c2)N(CC2CCC21)CC1(CCCc2cc(Cl)ccc21)CO3 (stereo not drawn) + CNC(=O)c1ccc(Nc2nc(OC3CCCC3)c3c(-c4ccc5nc(C)oc5c4)c[nH]c3n2)c(OC)c1 | 36.5
Nc1ccccc1NC(=O)c1ccc(CNC(=O)OCc2cccnc2)cc1 + CN1CCN(c2cc(C(=O)Nc3cc4cc(-c5cnn(C)c5)ccc4cn3)ccn2)CC1 | 27.4
O=c1[nH]cc(F)c(=O)[nH]1 + CNC(=O)c1ccc(Nc2nc(OC3CCCC3)c3c(-c4ccc5nc(C)oc5c4)c[nH]c3n2)c(OC)c1 | 74.3
C=CC(=O)N1CCN(c2nc(=O)n(-c3c(C)ccnc3C(C)C)c3nc(-c4c(O)cccc4F)c(F)cc23)C(C)C1 (stereo not drawn) + CNC(=O)c1ccc(Nc2nc(OC3CCCC3)c3c(-c4ccc5nc(C)oc5c4)c[nH]c3n2)c(OC)c1 | 58.5
Nc1ccccc1NC(=O)c1ccc(CNC(=O)OCc2cccnc2)cc1 + CNC(=O)c1ccc(Nc2nc(OC3CCCC3)c3c(-c4ccc5nc(C)oc5c4)c[nH]c3n2)c(OC)c1 | 30.2

Same assay, conditions: second compound 0.1 µM; first compound 3.16 µM; hits give low values

Compound | viability, T/C [%]
COC1C=CCC(C)C(C)S(=O)(=O)NC(=O)c2ccc3c(c2)N(CC2CCC21)CC1(CCCc2cc(Cl)ccc21)CO3 (stereo not drawn) + CNC(=O)c1ccc(Nc2nc(OC3CCCC3)c3c(-c4ccc5nc(C)oc5c4)c[nH]c3n2)c(OC)c1 | 12.5
Nc1ccccc1NC(=O)c1ccc(CNC(=O)OCc2cccnc2)cc1 + CN1CCN(c2cc(C(=O)Nc3cc4cc(-c5cnn(C)c5)ccc4cn3)ccn2)CC1 | 7.52
O=c1[nH]cc(F)c(=O)[nH]1 + CNC(=O)c1ccc(Nc2nc(OC3CCCC3)c3c(-c4ccc5nc(C)oc5c4)c[nH]c3n2)c(OC)c1 | 59.6
C=CC(=O)N1CCN(c2nc(=O)n(-c3c(C)ccnc3C(C)C)c3nc(-c4c(O)cccc4F)c(F)cc23)C(C)C1 (stereo not drawn) + CNC(=O)c1ccc(Nc2nc(OC3CCCC3)c3c(-c4ccc5nc(C)oc5c4)c[nH]c3n2)c(OC)c1 | 70.6
Nc1ccccc1NC(=O)c1ccc(CNC(=O)OCc2cccnc2)cc1 + CNC(=O)c1ccc(Nc2nc(OC3CCCC3)c3c(-c4ccc5nc(C)oc5c4)c[nH]c3n2)c(OC)c1 | 3.46

Same assay, conditions: second compound 0.1 µM; first compound 10 µM; hits give low values

Compound | viability, T/C [%]
COC1C=CCC(C)C(C)S(=O)(=O)NC(=O)c2ccc3c(c2)N(CC2CCC21)CC1(CCCc2cc(Cl)ccc21)CO3 (stereo not drawn) + CNC(=O)c1ccc(Nc2nc(OC3CCCC3)c3c(-c4ccc5nc(C)oc5c4)c[nH]c3n2)c(OC)c1 | 1.5
Nc1ccccc1NC(=O)c1ccc(CNC(=O)OCc2cccnc2)cc1 + CN1CCN(c2cc(C(=O)Nc3cc4cc(-c5cnn(C)c5)ccc4cn3)ccn2)CC1 | 1.57
O=c1[nH]cc(F)c(=O)[nH]1 + CNC(=O)c1ccc(Nc2nc(OC3CCCC3)c3c(-c4ccc5nc(C)oc5c4)c[nH]c3n2)c(OC)c1 | 39.7
C=CC(=O)N1CCN(c2nc(=O)n(-c3c(C)ccnc3C(C)C)c3nc(-c4c(O)cccc4F)c(F)cc23)C(C)C1 (stereo not drawn) + CNC(=O)c1ccc(Nc2nc(OC3CCCC3)c3c(-c4ccc5nc(C)oc5c4)c[nH]c3n2)c(OC)c1 | 36
Nc1ccccc1NC(=O)c1ccc(CNC(=O)OCc2cccnc2)cc1 + CNC(=O)c1ccc(Nc2nc(OC3CCCC3)c3c(-c4ccc5nc(C)oc5c4)c[nH]c3n2)c(OC)c1 | 5.63

Same assay, conditions: second compound 0.316 µM; first compound 0.0316 µM; hits give low values

Compound | viability, T/C [%]
COC1C=CCC(C)C(C)S(=O)(=O)NC(=O)c2ccc3c(c2)N(CC2CCC21)CC1(CCCc2cc(Cl)ccc21)CO3 (stereo not drawn) + CNC(=O)c1ccc(Nc2nc(OC3CCCC3)c3c(-c4ccc5nc(C)oc5c4)c[nH]c3n2)c(OC)c1 | 55.6
Nc1ccccc1NC(=O)c1ccc(CNC(=O)OCc2cccnc2)cc1 + CN1CCN(c2cc(C(=O)Nc3cc4cc(-c5cnn(C)c5)ccc4cn3)ccn2)CC1 | 23.7
O=c1[nH]cc(F)c(=O)[nH]1 + CNC(=O)c1ccc(Nc2nc(OC3CCCC3)c3c(-c4ccc5nc(C)oc5c4)c[nH]c3n2)c(OC)c1 | 78.6
C=CC(=O)N1CCN(c2nc(=O)n(-c3c(C)ccnc3C(C)C)c3nc(-c4c(O)cccc4F)c(F)cc23)C(C)C1 (stereo not drawn) + CNC(=O)c1ccc(Nc2nc(OC3CCCC3)c3c(-c4ccc5nc(C)oc5c4)c[nH]c3n2)c(OC)c1 | 61.1
Nc1ccccc1NC(=O)c1ccc(CNC(=O)OCc2cccnc2)cc1 + CNC(=O)c1ccc(Nc2nc(OC3CCCC3)c3c(-c4ccc5nc(C)oc5c4)c[nH]c3n2)c(OC)c1 | 58.1

Same assay, conditions: second compound 0.316 µM; first compound 0.1 µM; hits give low values

Compound | viability, T/C [%]
COC1C=CCC(C)C(C)S(=O)(=O)NC(=O)c2ccc3c(c2)N(CC2CCC21)CC1(CCCc2cc(Cl)ccc21)CO3 (stereo not drawn) + CNC(=O)c1ccc(Nc2nc(OC3CCCC3)c3c(-c4ccc5nc(C)oc5c4)c[nH]c3n2)c(OC)c1 | 49.5
Nc1ccccc1NC(=O)c1ccc(CNC(=O)OCc2cccnc2)cc1 + CN1CCN(c2cc(C(=O)Nc3cc4cc(-c5cnn(C)c5)ccc4cn3)ccn2)CC1 | 20.4
O=c1[nH]cc(F)c(=O)[nH]1 + CNC(=O)c1ccc(Nc2nc(OC3CCCC3)c3c(-c4ccc5nc(C)oc5c4)c[nH]c3n2)c(OC)c1 | 75.2
C=CC(=O)N1CCN(c2nc(=O)n(-c3c(C)ccnc3C(C)C)c3nc(-c4c(O)cccc4F)c(F)cc23)C(C)C1 (stereo not drawn) + CNC(=O)c1ccc(Nc2nc(OC3CCCC3)c3c(-c4ccc5nc(C)oc5c4)c[nH]c3n2)c(OC)c1 | 71.6
Nc1ccccc1NC(=O)c1ccc(CNC(=O)OCc2cccnc2)cc1 + CNC(=O)c1ccc(Nc2nc(OC3CCCC3)c3c(-c4ccc5nc(C)oc5c4)c[nH]c3n2)c(OC)c1 | 59.4

Same assay, conditions: second compound 0.316 µM; first compound 0.316 µM; hits give low values

Compound | viability, T/C [%]
COC1C=CCC(C)C(C)S(=O)(=O)NC(=O)c2ccc3c(c2)N(CC2CCC21)CC1(CCCc2cc(Cl)ccc21)CO3 (stereo not drawn) + CNC(=O)c1ccc(Nc2nc(OC3CCCC3)c3c(-c4ccc5nc(C)oc5c4)c[nH]c3n2)c(OC)c1 | 35.6
Nc1ccccc1NC(=O)c1ccc(CNC(=O)OCc2cccnc2)cc1 + CN1CCN(c2cc(C(=O)Nc3cc4cc(-c5cnn(C)c5)ccc4cn3)ccn2)CC1 | 19.8
O=c1[nH]cc(F)c(=O)[nH]1 + CNC(=O)c1ccc(Nc2nc(OC3CCCC3)c3c(-c4ccc5nc(C)oc5c4)c[nH]c3n2)c(OC)c1 | 73.4
C=CC(=O)N1CCN(c2nc(=O)n(-c3c(C)ccnc3C(C)C)c3nc(-c4c(O)cccc4F)c(F)cc23)C(C)C1 (stereo not drawn) + CNC(=O)c1ccc(Nc2nc(OC3CCCC3)c3c(-c4ccc5nc(C)oc5c4)c[nH]c3n2)c(OC)c1 | 72.3
Nc1ccccc1NC(=O)c1ccc(CNC(=O)OCc2cccnc2)cc1 + CNC(=O)c1ccc(Nc2nc(OC3CCCC3)c3c(-c4ccc5nc(C)oc5c4)c[nH]c3n2)c(OC)c1 | 46
